As a reminder, the solubility is how much of the substance goes into solution per volume. One may read the half-life as the time in which the quantity being followed falls by half. A high value points to slow loss. The term logD denotes the decadic logarithm of the distribution of all forms, ionised or not, between an organic phase and buffer at a given pH. A low value points to lower lipophilicity. One may read the Km as the substrate concentration at which the rate is half of its maximum.

Results on four compounds are retold here after ChEMBL document CHEMBL1149432, “Evaluation of hydroxyimine as cytochrome P450-selective prodrug structure” (J Med Chem, 2006).

Data set [1] in a line: Aqueous solubility at pH 7.4.
A short description of data set [2]: Chemical stability at pH 9.0. The data set is classed as physicochemical. The conditions noted are these: buffer.
A short description of data set [3]: Metabolic stability by incubation with rat liver microsomes treated with 3-methylcholanthrene. It counts as ADME, Microsome. The conditions noted are these: 3-methylcholanthrene-treated. A general note: Liver microsomes are vesicles of endoplasmic reticulum, rich in cytochrome P450 enzymes.
A short description of data set [4]: Chemical stability at pH 5.0. The data set is classed as physicochemical. The conditions noted are these: buffer.
Data set [5] can be described thus: Chemical stability in 80% human serum (pH 7.4). The data set is classed as physicochemical.
Data set [6] is described as follows: Aqueous solubility at pH 5.0.
The nature of data set [7]: Metabolic stability by incubation with rat liver microsomes treated with Phenobarbital. The data set is classed as ADME, Microsome.
A short description of data set [8]: Chemical stability at pH 1.0. The data set is classed as physicochemical. The conditions noted are these: buffer.
Data set [9] is described as follows: Metabolic stability by incubation with human liver microsomes. The data set is classed as ADME, Microsome.
Data set [10] is described as follows: Metabolic stability by incubation with rat liver microsomes treated with Dexamethasone. It counts as ADME, Microsome.
The nature of data set [11]: Metabolic stability by incubation with rat liver microsomes. The data set is classed as ADME, Microsome.
The nature of data set [12]: Chemical stability at pH 7.4. It counts as physicochemical. The conditions noted are these: buffer.
A short description of data set [13]: Distribution coefficient at pH 5.0, log D. The conditions noted are these: octanol/water.
Data set [14] is described as follows: Half life in rat urine at 37 °C. The conditions noted are these: in vitro.
The target in the next data set is T1, CYP2B6 (Homo sapiens, UniProt P20813).
T1 sequence (P20813 whole entry): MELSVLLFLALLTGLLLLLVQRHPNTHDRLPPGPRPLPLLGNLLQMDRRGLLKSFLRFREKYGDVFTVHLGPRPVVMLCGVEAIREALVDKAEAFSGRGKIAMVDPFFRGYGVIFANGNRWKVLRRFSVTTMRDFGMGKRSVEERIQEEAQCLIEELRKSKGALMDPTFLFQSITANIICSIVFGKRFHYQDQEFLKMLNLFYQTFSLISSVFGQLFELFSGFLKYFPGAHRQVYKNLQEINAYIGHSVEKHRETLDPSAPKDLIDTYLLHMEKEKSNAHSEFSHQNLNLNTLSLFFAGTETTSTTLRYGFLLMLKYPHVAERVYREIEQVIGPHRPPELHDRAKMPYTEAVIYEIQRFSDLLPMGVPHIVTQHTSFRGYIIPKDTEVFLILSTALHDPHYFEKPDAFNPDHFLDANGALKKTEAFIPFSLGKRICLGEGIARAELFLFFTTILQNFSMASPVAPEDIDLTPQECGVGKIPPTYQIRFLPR
In words: Binding constant for compound binding to CYP2B6. It counts as ADME.

Data set [15] in a line: Chemical stability at pH 3.0. It counts as physicochemical. The conditions noted are these: buffer.
Data set [16] can be described thus: Distribution coefficient at pH 7.4, log D. The conditions noted are these: octanol/water.

Values after ≈ are worked out from the molar mass of the structure shown.

Turning to `CC(C(=O)O)c1cccc(/C(=N\O)c2ccccc2)c1` (stereo not given), the values for the solubility in [1] (buffer) and in data set [6] were 116000 µg/mL (≈ 431000 µM) and 1800 µg/mL (≈ 6680 µM), respectively. Besides, the T1/2 result in [2], in [4] and in [12] was “Not Active” in each case. Also, the half-life in data set [3] came to 100 h; in [5] it was 796 h; in [7] it was 84 h; in [8], 6 h; in [9] it was 83.6 h; in data set [10] it was 72 h. Also, in [11], the half-life is 167 h.
`COc1ccc2cc(CC/C(C)=N/O)ccc2c1`: the logD in data set [13] and in [16] was 3.6 throughout. Further, the solubility turned out to be 2 µg/mL (≈ 8.22 µM) in data set [1] (buffer) and 3 µg/mL (≈ 12.3 µM) in data set [6]. In addition, the T1/2 entry in data set [2] was “Not Active”. For the same compound, the half-life was 0.0333 h in [3]; 69 h in data set [14]; 16.3 h in data set [4]; 591 h in data set [5]; 0.183 h in data set [15]; 0.467 h in data set [7]. The half-life in [8] is 0.1 h; in [9], 0.85 h; in [10], 0.767 h; in data set [11], 0.967 h; in [12], 720 h. Also, the Km on CYP2B6 amounted to 70 µM.
As to `CC(C(=O)O)c1cccc(C(=O)c2ccccc2)c1` (stereo not given) [KETOPROFEN], the logD was 2.1 in data set [13] and 0.008 in data set [16].
`COc1ccc2cc(CCC(C)=O)ccc2c1` [NABUMETONE]: the logD in data set [13] is 3.2; in data set [16], 3.3. Further, the solubility in [1] (aqueous) was determined as 4.3 µg/mL (≈ 18.8 µM); in data set [6] it was 6.4 µg/mL (≈ 28 µM).
